Experimental data published in patent US9562899B2, “Method of detecting OXA-048 carbapenemase producing bacteria” (BIOMÉRIEUX, priority 2012, dated 2017).
Like-named read-outs stand apart in the source and are kept apart here.

Tests used:
[1] = system: NDM-1 strains; type: cell-based, Enterobacteriaceae; settings: Ex 2, MIC in mg/l
Description: (§1) Optimization of the Detection Specificity by Introducing Specific Inhibitors Inhibition of Class B Strains (NDM, VIM, IMP) by Adding EDTA
(§2) Identical to that used to determine the temocillin MICs by agar dilution (example 1).
(§3) For each temocillin concentration, the following concentrations of active EDTA will be tested in the form of disodium EDTA: 0, 1.77, 2.12, 2.47 and 2.83 mmol/l.
(§4) Method: identical to the method used in example 1.

[2] = system: VIM strains; type: cell-based, Enterobacteriaceae; settings: Ex 2, MIC in mg/l
Description: as §1, §2, §3, §4

[3] = system: strains with a metallo-carbapenemase; settings: Livermore et al.; cited from earlier work

Q: Which “No. of NDM-1 strains with MIC 150” value ([1]; 0 mmol/l of EDTA) does the source give for `CO[C@@]1(NC(=O)C(C(=O)O)c2ccsc2)C(=O)N2[C@@H](C(=O)O)C(C)(C)S[C@@H]21` (stereo partly drawn) [temocillin] here?
A: 4

Q: And the “No. of NDM-1 strains with MIC 200” value ([1]; 0 mmol/l of EDTA)?
A: 1

Q: What about the “No. of NDM-1 strains with MIC 300” value ([1]; 0 mmol/l of EDTA) of the same compound?
A: 0

Q: And the “No. of NDM-1 strains with MIC >300” value ([1]; 0 mmol/l of EDTA)?
A: 0

Q: What about the “No. of NDM-1 strains with MIC ≦50” value ([1]; 0 mmol/l of EDTA) of the same compound?
A: 22

Q: And the “No. of NDM-1 strains with MIC 150” value ([1]; 1.77 mmol/l of active EDTA)?
A: 2

Q: What about the “No. of NDM-1 strains with MIC 200” value ([1]; 1.77 mmol/l of active EDTA) of the same compound?
A: 0

Q: What about the “No. of NDM-1 strains with MIC 300” value ([1]; 1.77 mmol/l of active EDTA) of the same compound?
A: 0

Q: What about the “No. of NDM-1 strains with MIC >300” value ([1]; 1.77 mmol/l of active EDTA) of the same compound?
A: 0

Q: What about the “No. of NDM-1 strains with MIC ≦50” value ([1]; 1.77 mmol/l of active EDTA) of the same compound?
A: 25

Q: And the “No. of NDM-1 strains with MIC 150” value ([1]; 2.12 mmol/l of active EDTA)?
A: 1

Q: And the “No. of NDM-1 strains with MIC 200” value ([1]; 2.12 mmol/l of active EDTA)?
A: 0

Q: What about the “No. of NDM-1 strains with MIC 300” value ([1]; 2.12 mmol/l of active EDTA) of the same compound?
A: 0

Q: And the “No. of NDM-1 strains with MIC >300” value ([1]; 2.12 mmol/l of active EDTA)?
A: 0

Q: What about the “No. of NDM-1 strains with MIC ≦50” value ([1]; 2.12 mmol/l of active EDTA) of the same compound?
A: 26

Q: And the “No. of NDM-1 strains with MIC 150” value ([1]; 2.47 mmol/l of active EDTA)?
A: 1

Q: What about the “No. of NDM-1 strains with MIC 200” value ([1]; 2.47 mmol/l of active EDTA) of the same compound?
A: 0

Q: And the “No. of NDM-1 strains with MIC 300” value ([1]; 2.47 mmol/l of active EDTA)?
A: 0

Q: What about the “No. of NDM-1 strains with MIC >300” value ([1]; 2.47 mmol/l of active EDTA) of the same compound?
A: 0

Q: What about the “No. of NDM-1 strains with MIC ≦50” value ([1]; 2.47 mmol/l of active EDTA) of the same compound?
A: 26

Q: What about the “No. of NDM-1 strains with MIC 150” value ([1]; 2.83 mmol/l of active EDTA) of the same compound?
A: 0

Q: And the “No. of NDM-1 strains with MIC 200” value ([1]; 2.83 mmol/l of active EDTA)?
A: 0

Q: And the “No. of NDM-1 strains with MIC 300” value ([1]; 2.83 mmol/l of active EDTA)?
A: 0

Q: What about the “No. of NDM-1 strains with MIC >300” value ([1]; 2.83 mmol/l of active EDTA) of the same compound?
A: 0

Q: And the “No. of NDM-1 strains with MIC ≦50” value ([1]; 2.83 mmol/l of active EDTA)?
A: 27

Q: What about the “No. of VIM strains with MIC 150” value ([2]; 0 mmol/l of EDTA) of the same compound?
A: 6

Q: And the “No. of VIM strains with MIC 200” value ([2]; 0 mmol/l of EDTA)?
A: 1

Q: And the “No. of VIM strains with MIC 300” value ([2]; 0 mmol/l of EDTA)?
A: 0

Q: And the “No. of VIM strains with MIC >300” value ([2]; 0 mmol/l of EDTA)?
A: 1

Q: What about the “No. of VIM strains with MIC ≦50” value ([2]; 0 mmol/l of EDTA) of the same compound?
A: 9

Q: What about the “No. of VIM strains with MIC 150” value ([2]; 1.77 mmol/l of active EDTA) of the same compound?
A: 0

Q: What about the “No. of VIM strains with MIC 200” value ([2]; 1.77 mmol/l of active EDTA) of the same compound?
A: 0

Q: What about the “No. of VIM strains with MIC 300” value ([2]; 1.77 mmol/l of active EDTA) of the same compound?
A: 0

Q: What about the “No. of VIM strains with MIC >300” value ([2]; 1.77 mmol/l of active EDTA) of the same compound?
A: 0

Q: What about the “No. of VIM strains with MIC ≦50” value ([2]; 1.77 mmol/l of active EDTA) of the same compound?
A: 17

Q: What about the “No. of VIM strains with MIC 150” value ([2]; 2.12 mmol/l of active EDTA) of the same compound?
A: 0

Q: What about the “No. of VIM strains with MIC 200” value ([2]; 2.12 mmol/l of active EDTA) of the same compound?
A: 0

Q: What about the “No. of VIM strains with MIC 300” value ([2]; 2.12 mmol/l of active EDTA) of the same compound?
A: 0

Q: And the “No. of VIM strains with MIC >300” value ([2]; 2.12 mmol/l of active EDTA)?
A: 0

Q: What about the “No. of VIM strains with MIC ≦50” value ([2]; 2.12 mmol/l of active EDTA) of the same compound?
A: 17

Q: And the “No. of VIM strains with MIC 150” value ([2]; 2.47 mmol/l of active EDTA)?
A: 0

Q: And the “No. of VIM strains with MIC 200” value ([2]; 2.47 mmol/l of active EDTA)?
A: 0

Q: What about the “No. of VIM strains with MIC 300” value ([2]; 2.47 mmol/l of active EDTA) of the same compound?
A: 0

Q: And the “No. of VIM strains with MIC >300” value ([2]; 2.47 mmol/l of active EDTA)?
A: 0

Q: And the “No. of VIM strains with MIC ≦50” value ([2]; 2.47 mmol/l of active EDTA)?
A: 17

Q: What about the “No. of VIM strains with MIC 150” value ([2]; 2.83 mmol/l of active EDTA) of the same compound?
A: 0

Q: What about the “No. of VIM strains with MIC 200” value ([2]; 2.83 mmol/l of active EDTA) of the same compound?
A: 0

Q: And the “No. of VIM strains with MIC 300” value ([2]; 2.83 mmol/l of active EDTA)?
A: 0

Q: And the “No. of VIM strains with MIC >300” value ([2]; 2.83 mmol/l of active EDTA)?
A: 0

Q: What about the “No. of VIM strains with MIC ≦50” value ([2]; 2.83 mmol/l of active EDTA) of the same compound?
A: 17

Q: And the “strains resistant to temocillin” value [3]?
A: 32/35
